Source: patent publication US8324250B2 (Hoffmann-La Roche Inc., priority 2009, dated 2012)

target: T1, recombinant human NK3 receptor (Homo sapiens, UniProt P29371); assay: [3H]SR142801 competition binding assay; settings: membranes from HEK293 cells transiently expressing recombinant human NK3 receptor; [3H]SR142801 radioligand; 75 min at RT; Ki by Cheng-Prussoff; read-out: Data Ki (hNK-3 receptor affinity)
T1 construct: expressed in transfected cells; host or cells: HEK293 cells (transient expression), membranes
T1 sequence (P29371 1-465): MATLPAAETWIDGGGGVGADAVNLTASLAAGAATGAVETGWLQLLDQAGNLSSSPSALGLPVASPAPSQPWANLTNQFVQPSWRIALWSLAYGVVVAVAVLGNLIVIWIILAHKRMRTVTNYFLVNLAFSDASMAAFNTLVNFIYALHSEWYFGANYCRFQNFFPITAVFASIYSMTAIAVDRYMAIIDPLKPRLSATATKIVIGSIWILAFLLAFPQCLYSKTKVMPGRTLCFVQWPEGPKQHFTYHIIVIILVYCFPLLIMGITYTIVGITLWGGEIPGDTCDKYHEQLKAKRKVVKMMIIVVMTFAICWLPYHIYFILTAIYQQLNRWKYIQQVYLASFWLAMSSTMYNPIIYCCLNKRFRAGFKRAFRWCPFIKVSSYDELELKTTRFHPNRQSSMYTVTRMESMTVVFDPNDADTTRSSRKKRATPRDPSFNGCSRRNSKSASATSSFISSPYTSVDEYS
Procedure: [^3H]SR142801 Competition Binding Assay
hNK3 receptor binding experiment were performed using [^3H]SR142801 (Catalog No. TRK1035, specific activity: 74.0 Ci/mmol, Amersham, GE Healthcare UK limited, Buckinghamshire, UK) and membrane isolated from HEK293 cells transiently expressing recombinant human NK3 receptor. After thawing, the membrane homogenates were centrifuged at 48,000×g for 10 min at 4° C., the pellets were resuspended in the 50 mM Tris-HCl, 4 mM MnCl2, 1 μM phosphoramidon, 0.1% BSA binding buffer at pH 7.4 to a final assay concentration of 5 μg protein/well. […] At the end of the incubation, membranes were filtered onto unitfilter (96-well white microplate with bonded GF/C filter preincubated 1 h in 0.3% PEI+0.3% BSA, Packard BioScience, Meriden, Conn.) with a Filtermate 196 harvester (Packard BioScience) and washed 4 times with ice-cold 50 mM Tris-HCl, pH 7.4 buffer. Nonspecific binding was measured in the presence of 10 μM SB222200 for both radioligands. The radioactivity on the filter was counted (5 min) on a Packard Top-count microplate scintillation counter with quenching correction after addition of 45 μl of microscint 40 (Can berra Packard S. A., Zurich, Switzerland) and shaking for 1 h. Inhibition curves were fitted according to the Hill equation: y=100/(1+(x/IC50)^nH), where nH=slope factor using Excel-fit 4 software (Microsoft). IC50 values were derived from the inhibition curve and the affinity constant (Ki) values were calculated using the Cheng-Prussoff equation Ki═IC50/(1+[L]/KD) where [L] is the concentration of radioligand and KD is its dissociation constant at the receptor, derived from the saturation isotherm. All experiments were performed in duplicate and the mean±standard error (SEM) of the individual Ki values was calculated.

SMILES | Ki
C[C@H](NC(=O)C1(c2ccccc2)CCN(C(=O)c2ccc(-c3ccccn3)cc2)CC1)c1ccccc1 [Example 6, 4-Phenyl-1-(4-pyridin-2-yl-benzoyl)-piperidine-4-carboxylic acid ((S)-1-phenyl-ethyl)-amide] | 40.9 nM
C[C@H](NC(=O)C1(c2ccccc2)CCN(C(=O)c2ccc(-c3ccccc3)cc2)CC1)c1ccccc1 [Example 2, 1-(Biphenyl-4-carbonyl)-4-phenyl-piperidine-4-carboxylic acid ((S)-1-phenyl-ethyl)-amide] | 22.9 nM
C[C@H](NC(=O)C1(c2ccccc2)CCN(C(=O)c2ccc(-n3cccc3)cc2)CC1)c1ccccc1 [Example 18, 4-Phenyl-1-(4-pyrrol-l-yl-benzoyl)-piperidine-4-carboxylic acid ((S)-1-phenyl-ethyl)-amide] | 96.6 nM
C[C@H](NC(=O)C1(c2ccccc2)CCN(C(=O)c2ccc(-c3ccc(F)cc3)cc2)CC1)c1ccccc1 [Example 54, 1-(4′-Fluoro-biphenyl-4-carbonyl)-4-phenyl-piperidine-4-carboxylic acid ((S)-1-phenyl-ethyl)-amide] | 7.2 nM
C[C@H](NC(=O)C1(c2ccc(F)cc2)CCN(C(=O)c2ccc(N3CCS(=O)(=O)CC3)cc2)CC1)c1ccc(F)cc1 [Example 1, 1-[4-(1,1-Dioxo-1λ^6-thiomorpholin-4-yl)-benzoyl]-4-(4-fluoro-phenyl)-piperidine-4-carboxylic acid [(S)-1-(4-fluoro-phenyl)-ethyl]-amide] | 29.3 nM

Now from value to compound:

Ki | SMILES
38 nM | CC(C)C(NC(=O)C1(c2ccc(F)cc2)CCN(C(=O)C2CCN(c3ccc(C#N)cn3)CC2)CC1)c1ccc(F)cc1 (stereo not drawn) [Example 153, 1-(5′-Cyano-3,4,5,6-tetrahydro-2H-[1,2′]bipyridinyl-4-carbonyl)-4-(4-fluoro-phenyl)-piperidine-4-carboxylic acid [1-(4-fluoro-phenyl)-2-methyl-propyl]-amide]
48 nM | CC(C)C(NC(=O)C1(c2ccc(F)cc2)CCN(C(=O)N2CCN(c3ccc(F)cc3)CC2)CC1)c1ccc(F)cc1 (stereo not drawn) [Example 175, 4-(4-Fluoro-phenyl)-1-[4-(4-fluoro-phenyl)-piperazine-1-carbonyl]-piperidine-4-carboxylic acid [1-(4-fluoro-phenyl)-2-methyl-propyl]-amide]
17.4 nM | C[C@H](NC(=O)C1(c2ccccc2)CCN(C(=O)c2ccc(N3CCS(=O)(=O)CC3)cc2)CC1)c1ccc(Cl)cc1 [Example 101, 1-[4-(1,1-Dioxo-1λ6-thiomor-pholin-4-yl)-benzoyl]-4-phenyl-pipendine-4-carboxylic acid [(S)-1-(4-chloro-phenyl)-ethyl]-amide]
6.2 nM | Cc1noc(-c2ccc(C(=O)N3CCC(C(=O)N[C@@H](C)c4ccc(F)cc4)(c4ccc(F)cc4)CC3)cc2)n1 [Example 88, 4-(4-Fluoro-phenyl)-1-{4-(3-methyl-[1,2,4]oxa-diazol-5-yl)-benzoyl] piperidine-4-carboxylic acid [(S)-1-(4-fluoro-phenyl)-ethyl]-amide]
75 nM | C[C@H](NC(=O)C1(c2ccc(F)cc2)CCN(C(=O)C2CCN(c3ccc(C#N)cn3)CC2)CC1)c1cccc(F)c1 [Example 155, 1-(5′-Cyano-3,4,5,6-tetrahydro-2H-[1,2′]bipyridinyl-4-carbonyl)-4-(4-fluoro-phenyl)-piperidine-4-carboxylic acid [(S)-1-(3-fluoro-phenyl)-ethyl]-amide]
31.5 nM | CC(=O)c1cccc(-c2ccc(C(=O)N3CCC(C(=O)N[C@@H](C)c4ccccc4)(c4ccccc4)CC3)cc2)c1 [Example 60, 1-(3′-Acetyl-biphenyl-4-carbonyl)-4-phenyl-piperidine-4-carboxylic acid ((S)-1-phenyl-ethyl)-amide]
36.3 nM | C[C@H](NC(=O)C1(c2ccccc2)CCN(C(=O)N2CCN(c3ccccc3)CC2)CC1)c1ccccc1 [Example 232, 4-Phenyl-1-(4-phenyl-piperazine-1-carbonyl)-piperidine-4-carboxylic acid ((S)-1-phenyl-ethyl)-amide]
